Laboratory results: US20220186190A1, “MODELING ONCOLOGY ON DEMAND” (The Board of Trustees of the University of Illinois, priority 2019, published 2022)

Legend:
HepG2 = assay: MTT chemotherapeutic screening, human HCC cell line HepG2; type: cell-based; settings: 72 hours exposure
Method: (§1) Cells (1×1O^4 cells/well) were cultured in 200 ? DMEM+10% FBS overnight in 96 well plates. The following day, culture media was replaced with fresh media supplemented with one of 10 varying concentrations of each chemotherapeutic compound. Sorafenib, doxorubicin, mitomycin C, and 5-Fluorouracil (5-FU) were prepared from a stock solution in a 10-point serial dilution curve, in DMSO, and added at 1:100 to culture media (final concentration of DMSO was 1% for all conditions). As platinum complexes are inactivated by DMSO, cisplatin stock solution was 3.33 mM in water and the stock was used to prepare all dilutions. Sorafenib and mitomycin C were tested from 0.5-100 μM, doxorubicin from 0.1-20 μM, cisplatin from 1-200 μM, and 5-FU from 1-500 μM in order to assay concentrations that are relevant for clinically used dosages and that allow for calculation of the half maximal inhibitory concentration (IC50) for each compound. 96 well plates with each cell line and chemotherapeutic concentration in triplicate were prepared for time points 0, 24, 48, and 72 hours to observe a dose response overtime. For the 3-(4,5-dimethylthiazol-2-yl)-2,5-diphenyltetrazolium bromide (MTT) assay, 100 ? of fresh media was replaced at each time point, 10 ? of 5 mg/ml MTT added to each well and incubated for 4 hours at 37° C. 100 ? for an SDS/HCl solution (1 g SDS/10 ml 0.1 HCl) was then added to solubilize the resulting formazan dye and the plates incubated an additional 4 h at 37° C. Absorbance at 570 nm was read using a BioTek 800 TS Absorbance Reader (BioTek). Results are expressed in percentage, relative to the absorbance values for each cell line at time 0.
(§2) OCM and human HCC cell lines display similar sensitivities to four FDA approved cytostatic (sorafenib) and cytotoxic (doxorubicin, cisplatin, mitomycin C) chemotherapeutic agents used to treat HCC clinically, either systemically or via transarterial chemoembolization (TACE), and one shown to be ineffective (5-FU) in clinical settings.

Hepal-6 = assay: MTT chemotherapeutic screening, murine HCC cell line Hepal-6; type: cell-based; settings: for IC50: Hepal-6, MTT, 72 hours exposure
Method: as §1, §2

OCM HCC cell lines = assay: MTT chemotherapeutic screening, OCM HCC cell line; type: cell-based, pig; settings: 72 hours exposure
Method: as §1, §2

[1] = tested on: Oncopig soft tissue sarcoma tumor cells; assay: In vitro partitioning and conversion of DON prodrugs to DON in Oncopig soft tissue sarcoma tumor cells; type: in vitro ADME, pig; settings: FIGS. 12A-12D
Source text: FIGS. 12A-12D are graphs showing in vitro partitioning and conversion of 6-diazo-5-oxo-1-norleucine (DON) prodrugs to DON in Oncopig soft tissue sarcoma tumor cells vs. plasma. […] However, when delivered as a prodrug (FIGS. 12B-12D), the level of active compound (DON, y-axis) is much higher in the cells than the cell supernatant.
(§3) OCM soft-tissue sarcoma cell lines were used to assess tumor cell specific uptake and conversion of 6-Diazo-5 -oxo-1-norleucine (DON) prodrugs. […] In addition, in vivo investigation of tumor specific uptake and temporal PK of systemically administered prodrugs in Oncopigs bearing SQ soft-tissue sarcomas validated the capability to employ the tumor-bearing OCM for chemotherapy drug pharmacologic studies (FIGS. 13A and 13B and Table 8).

[2] = In vivo PK and tumor specific uptake of systemically administered DON prodrugs in Oncopigs bearing SQ soft-tissue sarcomas; set-up: species or system pig; settings: for AUC / Cmax: systemically administered prodrug
Source text: as §3

Compound	IC50 (HepG2; Homo sapiens) [µM]	IC50 (Hepal-6; Mus musculus) [µM]	IC50 (OCM HCC cell lines; Sus scrofa) [µM]	IC50 (HepG2) [µM]	IC50 (Hepal-6) [µM]	IC50 (OCM HCC cell lines) [µM]	further results
O=c1[nH]cc(F)c(=O)[nH]1 [5-FU, 5-Fluorouracil]	18.3	1.82	14.5				higher susceptibility of murine HCC lines versus OCM and human lines (Hepal-6; Hepal-6 compared with OCM and human HCC lines): 10 fold
N.N.[Cl][Pt][Cl] [Cisplatin, cisplatin]				5.6	2.16	5.38	
[N-]=[N+]=CC(=O)CC[C@H](N)C(=O)O [DON, 6-diazo-5-oxo-1-norleucine]							level of DON in cells vs. cell supernatant [1]: high levels are observed in the cell supernatant, with small amounts entering the cells; Tumor:Plasma AUC ratio [2]: 1.5; selective in vivo partitioning (tumor vs. plasma) ([2]; FIGS. 13A and 13B): selective in vivo partitioning of DON to tumor cells; AUC ([2]; Plasma): 2852 h*pmol/ml or g; Cmax ([2]; Plasma): 530 pmol/ml or g; AUC ([2]; Tumor): 4238 h*pmol/ml or g; Cmax ([2]; Tumor): 1019 pmol/ml or g
CO[C@@]12[C@H](COC(N)=O)C3=C(C(=O)C(C)=C(N)C3=O)N1C[C@@H]1N[C@@H]12 [Mitomycin C, mitomycin C]				0.57	0.61	0.48	

Now from value to compound, other results behind:

IC50 (HepG2; Homo sapiens) [µM]	IC50 (Hepal-6; Mus musculus) [µM]	IC50 (OCM HCC cell lines; Sus scrofa) [µM]	Compound	IC50 (HepG2) [µM]	IC50 (Hepal-6) [µM]	IC50 (OCM HCC cell lines) [µM]	further results
0.23	0.53	0.08	COc1cccc2c1C(=O)c1c(O)c3c(c(O)c1C2=O)C[C@@](O)(C(=O)CO)C[C@@H]3O[C@H]1C[C@H](N)[C@H](O)[C@H](C)O1 [Doxorubicin, doxorubicin]				
8.86	4.98	10.4	CNC(=O)c1cc(Oc2ccc(NC(=O)Nc3ccc(Cl)c(C(F)(F)F)c3)cc2)ccn1 [Sorafenib]				
